Results from the supplement of paper PMC8671470.

What was measured:
Settings in all cases: 72 h
[1] = system: BV-173
How it was run: (§1)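 Each of fifteen myeloid leukaemia cell lines was seeded in RPMI 1640 at a density titrated to its linear growth range. The cells were incubated for 72 h at 37 °C and 5% CO2 with compounds at five tenfold doses from 1 to 10,000 nM, in duplicate. After ATP luminescence was normalised to vehicle and to a positive control at 10 µM, four-parameter log-logistic curves were fitted. These curves gave the IC50.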

[2] = system: HEL
How it was run: as §1

[3] = system: HL-60
How it was run: as §1

[4] = system: K-562
How it was run: as §1

[5] = system: KCL-22
How it was run: as §1

[6] = system: KG-1
How it was run: as §1

[7] = system: KU-812
How it was run: as §1

[8] = system: LAMA-84
How it was run: as §1

[9] = system: ML-2
How it was run: as §1

[10] = system: MOLM-13
How it was run: as §1

[11] = system: MV4-11
How it was run: as §1

[12] = system: Mono-Mac-6
How it was run: as §1

[13] = system: NOMO-1
How it was run: as §1

[14] = system: SHI-1
How it was run: as §1

[15] = system: THP-1
How it was run: as §1

[16] = system: HL-60; assay: cell viability (% survival relative to DMSO control); higher = less cytotoxic
How it was run: (§2)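 HL-60 cells grown in RPMI 1640 with 10% FBS were rescreened against the full library in 384-well plates, in duplicate, at five tenfold concentrations from 1 to 10,000 nM, alongside DMSO or 100 nM of one of three metabolic inhibitors for 72 h at 37 °C, 5% CO2. Reference wells contained DMSO or 10 μM proteasome inhibitor. Viability was read with CellTiter-Glo and normalised to these reference wells, and where reported, area under the curve was taken from four-parameter log-logistic fits in drc and PharmacoGx.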

[17] = system: BV-173; assay: cell viability (% survival relative to DMSO control, bortezomib = 0%); higher = less cytotoxic
How it was run: (§3)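 In 384-well plates pre-printed with compounds at 1, 10, 100, 1000 or 10000 nM, duplicate wells received cells from 10 AML and 5 CML lines at densities within the linear growth range. The plates stayed at 37 °C with 5% CO2 for 72 h before CellTiter-Glo luminescence was recorded. Each entry is averaged percent survival. Scaling placed vehicle at 100% and a 10 µM positive control at 0%.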

[18] = system: HEL; assay: as above
How it was run: as §3

[19] = system: HL-60; assay: as above
How it was run: as §3

[20] = system: K-562; assay: as above
How it was run: as §3

[21] = system: KCL-22; assay: as above
How it was run: as §3

[22] = system: KG-1; assay: as above
How it was run: as §3

[23] = system: LAMA-84; assay: as above
How it was run: as §3

[24] = system: ML-2; assay: as above
How it was run: as §3

[25] = system: MOLM-13; assay: as above
How it was run: as §3

[26] = system: MV4-11; assay: as above
How it was run: as §3

[27] = system: SHI-1; assay: as above
How it was run: as §3

[28] = system: HL-60; assay: area under dose-response curve (viability, 1 nM-10 uM) (fraction (0-1)); higher = more sensitive
How it was run: as §2

Cn1cc(C[C@@H](N)C(=O)O)c2ccccc21 [Indoximod]
Settings | IC50 (cell viability) [µM]
[1] | > 10
[2] | > 10
[3] | > 10
[4] | > 10
[5] | > 10
[6] | > 10
[7] | > 10
[8] | > 10
[9] | > 10
[10] | > 10
[11] | > 10
[12] | > 10
[13] | > 10
[14] | > 10
[15] | > 10

cell viability [%], [16]
Settings | 0.001 µM | 0.01 µM | 0.1 µM | 1 µM | 10 µM
co-treatment: AZD3965 100 nM | 89.7 | 96.1 | 104 | 106 | 101
co-treatment: DMSO vehicle | 100 | 98.7 | 112 | 110 | 96.7
co-treatment: GSK2194069 100 nM | 96.5 | 88.55 | 115 | 113 | 86.2
co-treatment: pictilisib 100 nM | 110 | 63.4 | 120 | 123 | 93.9

Settings | area under dose-response curve, co-treatment: AZD3965 100 nM | area under dose-response curve, co-treatment: DMSO vehicle | area under dose-response curve, co-treatment: GSK2194069 100 nM | area under dose-response curve, co-treatment: pictilisib 100 nM | cell viability, 1 nM [%] | cell viability, 10 nM [%] | cell viability, 100 nM [%] | cell viability, 1000 nM [%] | cell viability, 10000 nM [%]
[17] | – | – | – | – | 134 | 95.3 | 90.6 | 84.7 | 100
[18] | – | – | – | – | 110 | 97.1 | 85.8 | 120 | 100
[19] | – | – | – | – | 102 | 90.2 | 116 | 97.3 | 106
[20] | – | – | – | – | 103 | 108 | 79.8 | 87.5 | 89.9
[21] | – | – | – | – | 109 | 86.8 | 82.5 | 106 | 101
[22] | – | – | – | – | 107 | 99 | 102 | 99.2 | 97.6
[23] | – | – | – | – | 94.5 | 97.2 | 91.1 | 113 | 94.7
[24] | – | – | – | – | 97.8 | 97.2 | 100 | 106 | 92.9
[25] | – | – | – | – | 104 | 97.7 | 81.3 | 86.8 | 76.7
[26] | – | – | – | – | 93.3 | 88.2 | 103 | 85.5 | 94.9
[27] | – | – | – | – | 96 | 101 | 102 | 107 | 104
[28] | < 0.0301 | < 0.0301 | < 0.0301 | < 0.0301 | – | – | – | – | –

O=C(Oc1ccc([N+](=O)[O-])cc1)N1CCC(C(O)(c2ccc3c(c2)OCO3)c2ccc3c(c2)OCO3)CC1 [JZL184]
Settings | IC50 (cell viability) [µM]
[1] | > 10
[2] | > 10
[3] | > 10
[4] | > 10
[5] | > 10
[6] | > 10
[7] | > 10
[8] | > 10
[9] | > 10
[10] | > 10
[11] | > 10
[12] | > 10
[13] | > 10
[14] | > 10
[15] | > 10

cell viability [%], [16]
Settings | 0.001 µM | 0.01 µM | 0.1 µM | 1 µM | 10 µM
co-treatment: AZD3965 100 nM | 110 | 92.8 | 104 | 98.7 | 105.1
co-treatment: DMSO vehicle | 100 | 93.8 | 100.9 | 101 | 97.3
co-treatment: GSK2194069 100 nM | 103 | 99.6 | 99.2 | 101 | 107
co-treatment: pictilisib 100 nM | 83.1 | 89.4 | 97.2 | 95.5 | 99

Settings | area under dose-response curve, co-treatment: AZD3965 100 nM | area under dose-response curve, co-treatment: DMSO vehicle | area under dose-response curve, co-treatment: GSK2194069 100 nM | area under dose-response curve, co-treatment: pictilisib 100 nM | cell viability, 1 nM [%] | cell viability, 10 nM [%] | cell viability, 100 nM [%] | cell viability, 1000 nM [%] | cell viability, 10000 nM [%]
[17] | – | – | – | – | 95.2 | 96.5 | 90.7 | 92.9 | 69.4
[18] | – | – | – | – | 97.3 | 114 | 120 | 90.6 | 97.4
[19] | – | – | – | – | 96.9 | 98.8 | 105 | 103 | 101
[20] | – | – | – | – | 92.8 | 110 | 106 | 87 | 95.7
[21] | – | – | – | – | 90.8 | 108 | 112 | 105 | 92.3
[22] | – | – | – | – | 101 | 107 | 100 | 104 | 94
[23] | – | – | – | – | 97 | 102 | 95.9 | 89.7 | 96.6
[24] | – | – | – | – | 102 | 112 | 114 | 104 | 98.9
[25] | – | – | – | – | 92.2 | 100 | 117 | 107 | 92.9
[26] | – | – | – | – | 94.9 | 95.7 | 98.9 | 94.5 | 88.5
[27] | – | – | – | – | 110 | 97.9 | 129 | 103 | 90.7
[28] | < 0.0301 | < 0.0301 | < 0.0301 | < 0.0301 | – | – | – | – | –
